{
  "source": "patent US20230089789A1",
  "about": "“INTESTINAL TRACT FUNCTION-IMPROVING AGENT” (CYCLOCHEM BIO CO., LTD., priority 2020, published 2023)",
  "key": {"[1]": {"system": "IgA", "assay": "IgA measurement in cecal contents (Rat IgA ELISA Kit)", "assay_type": "in vivo, SD rats", "details": "5.5% in NF diet, 8 weeks; for IgA amount of cecal contents: compared to the NF group (p<0.01), FIG. 2", "procedure": "(§1) Fifteen 3-week-old SD rats (Japan SLC, Inc.) were acclimatized to the facility for one week and then divided into three groups of NF group (No Fiber diet), α-CD group (5.5% α-CD-containing NF diet) and LS group (5.5% LS-containing NF diet), each including five rats, and each rat was kept in one cage. In this test, the experiment was conducted in accordance with the Guidelines for Animal Experimentation of Kobe Women's University (Kobe, Japan), and approved by the animal ethics committee of the Graduate School of Science of Health and Nutrition at Kobe Women's University. The breeding environment was at 23±3° C. with a humidity of 60±10%, and cycles of 12-hour light/12-hour dark were provided. The rats were allowed to freely take diets and water and bread for eight weeks with experimental diets.\n(§2) The diets were prepared in such a manner that the α-CD or LS content of dry experimental diet became 5.5%. After mixing each powder well, 100 ml of water was added, and thus mixed material was used as an experimental diet.\n(§3) The rats of each group were fasted overnight eight weeks after starting breeding and then dissected under isoflurane anesthesia, and the cecum were taken out.\nOne hundred milligrams of cecal contents were measured and stirred after adding 1 ml of Elix water. After stirring, the resultant was centrifuged under the conditions of 10000 rpm for 30 min at 4° C., and the supernatant was used as a sample for IgA measurement. IgA amount of each sample was measured using Rat IgA ELISA Kit (Bethyl Laboratories, Inc.). Statistical analysis was conducted in the same manner as in 1) above."}, "[2]": {"system": "Caco-2 cells", "assay": "Cytotoxicity of food emulsifiers alone (LDH activity)", "assay_type": "cell-based, human", "procedure": "(§4) Caco-2 cells were inoculated to a 96-well plate at 10000 cells/well and cultured for three days to confluency. The Caco-2 cells were washed with PBS and then treated with a food emulsifier SE (250 μg/mL HLB16P, 1000 μg/mL HLB11S or 500 μg/mL […]) or monolaurin (500 μg/mL) and α-CD for an hour, and the LDH activities of each were measured. The treatment amounts of α-CD were 1/10, 1, 1.5, 2, 5 and 10 times the weight ratios for each SE. For monolaurin, the treatment amounts of α-CD were 1/10, 1, 1.5, 2, 5, 10 and 15 times the weight ratios.\nFor comparison, the LDH activities of Caco-2 cells which were treated with the SE (HLB16P (0-1000 μg/mL), HLB11S or HLB16S (each 0-2000 μg/mL)) or monolaurin (0-2500 μg/mL) alone for an hour were also measured."}, "[3]": {"system": "mucin", "assay": "Mucin measurement in cecal contents (Fecal mucin Assay Kit)", "assay_type": "in vivo, SD rats", "details": "5.5% in NF diet, 8 weeks, FIG. 1", "procedure": "as §1\nThe diets were prepared in such a manner that the α-CD or LS content of dry experimental diet became 5.5%. After mixing each powder well, 100 ml of water was added, and thus mixed material was used as an experimental diet. […]\nThe mucin amounts of the cecal contents were measured using Fecal mucin Assay Kit (Cosmo Bio Co., Ltd.), statistically analyzed by the Dunnett's test and the Student's t-test using Pharmaco Analyst I (Ver. 13.1.1; Three S Japan) and shown with the average values ±standard errors."}, "[4]": {"system": "Caco-2 cells", "assay": "Effect on cytotoxicity of food emulsifiers (LDH activity)", "assay_type": "cell-based, human", "details": "one hour", "procedure": "as §4"}, "[5]": {"system": "putrefactive products (indole, p-cresol and phenol)", "assay": "Putrefactive product measurement in cecal contents", "assay_type": "in vivo, SD rats", "details": "5.5% in NF diet, 8 weeks", "procedure": "as §1, §2, §3\nAnalysis of the amounts of putrefactive products (indole, p-cresol and phenol) in cecal contents was entrusted (TechnoSuruga Laboratory Co., Ltd.)."}, "[6]": {"assay": "Feces amount measurement", "assay_type": "in vivo, SD rats", "details": "5.5% in NF diet, feces of three days from the 45th day", "procedure": "as §1, §2\nA drainboard was placed on the floor of each breeding cage 44 days after starting the test, and the feces that fell under the drainboard were collected every day for three days in succession after the 45th day. The weight (wet weight) of the collected feces (for the three days) was measured, and then after drying under reduced pressure, the feces weight after drying (dry weight) was measured."}, "[7]": {"system": "Caco-2 cells", "assay": "Transepithelial electrical resistance decrease by food emulsifier", "assay_type": "cell-based, human", "details": "HLB16P 62.5 μg/mL and α-CD 0-2000 μg/mL, 120 minutes, FIG. 7A", "procedure": "Caco-2 cells were seeded to a Transwell insert at 0.4×10^6 cells/mL using Corning (registered trademark) BioCoat (trademark) intestinal epithelial cells (Caco-2) differentiation environment kit (Corning International K.K.), cultured for one day in a normal medium and cultured for three days in a differentiation medium. The Caco-2 cells were washed with PBS, then treated with HLB16P (62.5 μg/mL) and α-CD (0-2000 μg/mL) and incubated for 120 minutes. During the incubation, the transepithelial electrical resistance values were measured every 20 minutes by Millicell ERS-2 resistance measurement system (Nihon Millipore K.K.).\nIn the same manner, the transepithelial electrical resistance values were measured after treatment with HLB16P (62.5 μg/mL) and α-CD (2000 μg/mL), each water-soluble dietary fiber or oligosaccharide (2000 μg/mL)."}, "[8]": {"system": "cecal microflora (Lactobacillales)", "assay": "Analysis of cecal microflora by the T-RFLP method", "assay_type": "in vivo, SD rats", "details": "5.5% in NF diet, 8 weeks; compared to the NF group or the LS group", "procedure": "as §1, with “diets. […]” for “diets.”\n(§5) A cut was made in the cecum taken out in 1 above, and the contents were squeezed out. The weights of the cecal contents were measured. […]\n(§6) The cecal contents which were thawed for the microflora analysis were mixed and homogenized, and the analysis of the microflora by the T-RFLP method, measurement of the SCFAs amounts and the pH analysis were entrusted (TechnoSuruga Laboratory Co., Ltd.). The total SCFAs amounts were calculated by adding up the amounts of lactic acid, succinic acid, acetic acid, propionic acid and butyric acid."}, "[9]": {"assay": "pH analysis of cecal contents", "assay_type": "in vivo, SD rats", "details": "5.5% in NF diet, 8 weeks", "procedure": "as §1, with “diets. […]” for “diets.”\nas §5, §6"}, "[10]": {"assay": "Measurement of SCFAs amounts in cecal contents", "assay_type": "in vivo, SD rats", "details": "5.5% in NF diet, 8 weeks", "procedure": "as §1, §2, §3\nA cut was made in the cecum taken out in 1 above, and the contents were squeezed out. The weights of the cecal contents were measured. Immediately after the weight measurement, the contents were frozen with liquid nitrogen and stored at −80° C.\nas §6"}, "[11]": {"details": "compared to the LS group (p<0.01, Student's t-test)"}, "[12]": {"details": "HLB11S 1000 μg/mL, weight ratio, FIG. 5B"}, "[13]": {"details": "HLB16P 250 μg/mL, weight ratio, FIG. 5A"}, "[14]": {"details": "HLB16S 500 μg/mL, weight ratio, FIG. 5C"}, "[15]": {"details": "compared to the LS group (p<0.05)"}},
  "data": [
    {"smiles": "OC[C@H]1O[C@@H](O[C@H]2[C@H](O)[C@@H](O)[C@@H](O[C@]3(CO)O[C@H](CO)[C@@H](O)[C@@H]3O)O[C@@H]2CO)[C@H](O)[C@@H](O)[C@H]1O", "note": "[LS, Lactosucrose, reference compound]", "values": [
      {"measurement": "IgA amount of cecal contents", "setting": "[1]", "result": "increased significantly"}
    ]},
    {"smiles": "CCCCCCCCCCCC(=O)OCC(O)CO", "note": "(stereo not shown) [monolaurin, Monolaurin]", "values": [
      {"measurement": "concentration at which cytotoxicity to the Caco-2 cells was observed", "setting": "[2]", "result": "≥ 156.25", "unit": "µg/mL"},
      {"measurement": "concentration at which cytotoxicity to the Caco-2 cells was very high", "setting": "[2]", "result": "≥ 625", "unit": "µg/mL"}
    ]},
    {"smiles": "OC[C@H]1O[C@@H]2O[C@H]3[C@H](O)[C@@H](O)[C@@H](O[C@H]4[C@H](O)[C@@H](O)[C@@H](O[C@H]5[C@H](O)[C@@H](O)[C@@H](O[C@H]6[C@H](O)[C@@H](O)[C@@H](O[C@H]7[C@H](O)[C@@H](O)[C@@H](O[C@H]1[C@H](O)[C@H]2O)O[C@@H]7CO)O[C@@H]6CO)O[C@@H]5CO)O[C@@H]4CO)O[C@@H]3CO", "note": "[α-CD]", "values": [
      {"measurement": "mucin amount of cecal contents", "setting": "[3]; [11]", "result": "increased significantly"},
      {"measurement": "mucin amount of cecal contents", "setting": "[3]; compared to the NF group (p<0.01)", "result": "increased significantly"},
      {"measurement": "suppression of the cytotoxicity of the food emulsifier", "setting": "[4]; 1000 μg/mL HLB11S and 1000 μg/mL test substance, LDH activity, FIG. 6", "result": "exhibits such an effect"},
      {"measurement": "amount of α-CD with which cytotoxicity of HLB11S disappeared completely", "setting": "[4]; [12]", "result": 10, "unit": "times the amount"},
      {"measurement": "amount of α-CD with which cytotoxicity of HLB11S was reduced significantly", "setting": "[4]; [12]", "result": "≥ 0.1", "unit": "times the amount"},
      {"measurement": "amount of α-CD with which cytotoxicity of HLB16P disappeared completely", "setting": "[4]; [13]", "result": 10, "unit": "times the amount"},
      {"measurement": "amount of α-CD with which cytotoxicity of HLB16P was reduced significantly", "setting": "[4]; [13]", "result": "≥ 1.5", "unit": "times the amount"},
      {"measurement": "amount of α-CD with which cytotoxicity of HLB16S disappeared completely", "setting": "[4]; [14]", "result": 5, "unit": "times the amount"},
      {"measurement": "amount of α-CD with which cytotoxicity of HLB16S was reduced significantly", "setting": "[4]; [14]", "result": "≥ 1.5", "unit": "times the amount"},
      {"measurement": "amount of α-CD with which cytotoxicity of monolaurin disappeared completely", "setting": "[4]; monolaurin 500 μg/mL, weight ratio, FIG. 5D", "result": "≥ 10", "unit": "times the amount"},
      {"measurement": "production of the putrefactive products", "setting": "[5]; [11]", "result": "suppressed significantly"},
      {"measurement": "amounts of the putrefactive products (indole, p-cresol and phenol) in cecal contents", "setting": "[5]; compared to the NF group (p<0.01), FIG. 3", "result": "decreased significantly"},
      {"measurement": "feces amount, dry weight", "setting": "[6]; [15]", "result": "increased significantly"},
      {"measurement": "feces amount, wet weight", "setting": "[6]; [15]", "result": "increased significantly"},
      {"measurement": "feces amount, wet weight", "setting": "[6]; compared to the NF group (p<0.01), FIG. 4A", "result": "increased significantly"},
      {"measurement": "feces amount, dry weight", "setting": "[6]; compared to the NF group (p<0.01), FIG. 4B", "result": "increased significantly"},
      {"measurement": "suppression of the decrease in transepithelial electrical resistance value by the SE", "setting": "[7]", "result": "suppressed by the addition of α-CD in a concentration-dependent manner"},
      {"measurement": "proportion of the Lactobacillales in cecal microflora", "setting": "[8]", "result": "increased"},
      {"measurement": "decrease in the cecal pH", "setting": "[9]; compared to the LS group", "result": "remarkable"},
      {"measurement": "cecal pH", "setting": "[9]; compared to the NF group", "result": "decreased significantly"},
      {"measurement": "increase in amount of acetic acid", "setting": "[10]; compared to the LS group", "result": "remarkable"},
      {"measurement": "increase in amount of lactic acid", "setting": "[10]; compared to the LS group", "result": "remarkable"},
      {"measurement": "increase in amount of n-butyric acid", "setting": "[10]; compared to the LS group", "result": "remarkable"},
      {"measurement": "increase in amount of propionic acid", "setting": "[10]; compared to the LS group", "result": "remarkable"},
      {"measurement": "increase in amount of succinic acid", "setting": "[10]; compared to the LS group", "result": "remarkable"},
      {"measurement": "increase in total SCFAs amount", "setting": "[10]; compared to the LS group", "result": "remarkable"},
      {"measurement": "amount of acetic acid in cecal contents", "setting": "[10]; compared to the NF group", "result": "increased significantly"},
      {"measurement": "amount of lactic acid in cecal contents", "setting": "[10]; compared to the NF group", "result": "increased significantly"},
      {"measurement": "amount of n-butyric acid in cecal contents", "setting": "[10]; compared to the NF group", "result": "increased significantly"},
      {"measurement": "amount of propionic acid in cecal contents", "setting": "[10]; compared to the NF group", "result": "increased significantly"},
      {"measurement": "amount of succinic acid in cecal contents", "setting": "[10]; compared to the NF group", "result": "increased significantly"},
      {"measurement": "total SCFAs amount in cecal contents", "setting": "[10]; compared to the NF group", "result": "increased significantly"},
      {"measurement": "IgA amount of cecal contents", "setting": "[1]", "result": "increased significantly"},
      {"measurement": "IgA-increasing effect", "setting": "[1]; α-CD group vs LS group, Student's t-test", "result": "comparable to that of LS"}
    ]}
  ]
}
